Data on 1 sequence can be found in US11674959B2, “Methods for identifying and preparing pharmaceutical agents for activating Tie1 and/or Tie2 receptors” (The Johns Hopkins University, priority 2017, dated 2023).

The test system of this assay is MEC monolayers. The assay can be described thus: Immunofluorescence of MEC monolayers for VE-cadherin and F-actin. Type of assay: cell-based, human. The conditions noted are these: 200 ng/ml Ang2, increasing concentrations of AXT107. As to the method:
The jaggedness of these junctions is related to the structure of actin within the cell.
Glass-bottomed, 96-well plates with half well size were coated with 10 μg/ml FN1 for two hours at 37° C. The FN1 solution was then removed by aspiration and the plate seeded with 4×10^3 MECs in EGM-2MV media. After twenty-four hours, the cells were washed once with dPBS containing Ca^2+ and Mg^2+ to remove dead cells and the cells were allowed to grow for an additional twenty-four hours. For three-hour duration treatments (i.e., VE-cadherin), cells were washed twice with dPBS containing Ca^2+ and Mg^2+ and serum starved in EBM-2 for ninety minutes. The media was then removed and the cells were treated for three hours with 100 μl of EBM-2 media containing 200 ng/ml Ang2 or PBS and varying concentrations of AXT107 or DMSO. For fifteen minute-treated samples (i.e., phospho-Tie2), the cells were serum starved in EBM-2 media for 165 minutes, incubated for ninety minutes with varying concentrations of AXT107 or DMSO in EBM-2, and finally stimulated for fifteen minutes with 200 ng/ml Ang2 or PBS supplemented with peptide to retain the same concentrations. These times were chosen so that both treatment procedures would be completed at the same time. The cells were then washed twice with cold dPBS containing Ca^2+ and Mg^2+ and fixed in 10% neutral buffered formalin for fifteen minutes. […]

Regarding LRRFSTAPFAFIDINDVINF [AXT107], the Actin fiber arrangement entry is “became more cortical with increasing concentrations of AXT107” and the “Distribution of VE-cadherin at junctions” value is “became progressively smoother with increasing concentrations of AXT107”.
